SMILES strings stand for the structures. Bounds are passed on as bounds.

The results in this text go back to patent US10472358B2, “1H-pyrrolo[2,3-c]pyridin-7(6H)-ones and pyrazolo[3,4-c]pyridin-7(6H)-ones as inhibitors of BET proteins” (Incyte Corporation, priority 2014, dated 2019).

In one assay the test system is KMS.12.BM cells. Nature of the assay: KMS.12.BM cell viability assay (Cell Titer-GLO, ATP quantitation). It is filed as cell-based. The following applies: KMS-12-BM, 72 h; human myeloma cells, 3 days, concentration required for 50% cell death. As to the method:
Example B1: KMS.12.BM Cell Viability Assay
KMS.12.BM cell line (human myeloma) was purchased from JCRB (Osaka, Japan) and maintained in RPMI with 10% FBS culture medium. To measure the cytotoxic activity of the compounds through ATP quantitation, the KMS.12.BM cells are plated in the RPMI culture medium at 5000 cells/well/per 100 μL into a 96-well polystyrene clear black tissue culture plate (Greiner-bio-one through VWR, NJ), in the presence or absence of a concentration range of test compounds. After 3 days, […] Cell Titer-GLO Luminescent (Promega, Madison, Wis.) cell culture agent is added to each well for 10 minutes at room temperature to stabilize the luminescent signal. This determines the number of viable cells in culture based on quantitation of the ATP present, which signals the presence of metabolically active cells. Luminescence is measured with the Top Count 384 (Packard Bioscience through Perkin Elmer, Boston, Mass.). Compound inhibition is determined relative to cells cultured with no drug and the IC50 is reported as the compound concentration required for 50% cell death.
(In ATP-based viability assays light output follows the ATP content of the culture.)
For `COc1cc(-c2cn(C)c(=O)c3[nH]ccc23)c2c(c1)N(CC(N)=O)C(=O)C(C(C)C)O2` (stereo not shown) [Example 13, 2-[2-isopropyl-6-methoxy-8-(6-methyl-7-oxo-6,7-dihydro-1H-pyrrolo[2,3-c]pyridin-4-yl)-3-oxo-2,3-dihydro-4H-1,4-benzoxazin-4-yl]acetamide], the IC50 (in general, the midpoint of a concentration-inhibition curve) is at most 1000 nM. The molecule `COc1cc2c(c(-c3cn(C)c(=O)c4[nH]ccc34)c1)OC(C1CCCC1)C(=O)N2` (single isomer, unassigned) [Example 35A, 2-Cyclopentyl-6-methoxy-8-(6-methyl-7-oxo-6,7-dihydro-1H-pyrrolo[2,3-c]pyridin-4-yl)-2H-1,4-benzoxazin-3(4H)-one] displayed an IC50 of at most 1000 nM. Still for that read-out and setting: the figure for `COc1cc2c(c(-c3cn(C)c(=O)c4[nH]ccc34)c1)OC(c1ccc(F)cc1Cl)C(=O)N2` (stereo not shown) [Example 25, 2-(2-chloro-4-fluorophenyl)-6-methoxy-8-(6-methyl-7-oxo-6,7-dihydro-1H-pyrrolo[2,3-c]pyridin-4-yl)-2H-1,4-benzoxazin-3(4H)-one] is at most 1000 nM; for `CC(O)c1cc2c(c(-c3cn(C)c(=O)c4[nH]ccc34)c1)OC(C(C)C)C(=O)N2` (stereo not shown) [Example 50, 6-(1-hydroxyethyl)-2-isopropyl-8-(6-methyl-7-oxo-6,7-dihydro-1H-pyrrolo[2,3-c]pyridin-4-yl)-2H-1,4-benzoxazin-3(4H)-one] it is at most 1000 nM; for `CC(C)C1Oc2c(-c3cn(C)c(=O)c4[nH]ccc34)cc(C(N)=O)cc2N(C)C1=O` (stereo not shown) [Example 19, 2-isopropyl-4-methyl-8-(6-methyl-7-oxo-6,7-dihydro-1H-pyrrolo[2,3-c]pyridin-4-yl)-3-oxo-3,4-dihydro-2H-1,4-benzoxazine-6-carboxamide] it is at most 1000 nM.

`Cn1cc(-c2cc(S(C)(=O)=O)cc3c2OC2(CC2)C(=O)N3)c2cc[nH]c2c1=O` [Example 57, 8-(6-methyl-7-oxo-6,7-dihydro-1H-pyrrolo[2,3-c]pyridin-4-yl)-6-(methylsulfonyl)spiro[1,4-benzoxazine-2,1′-cyclopropan]-3(4H)-one] gave an IC50 of at most 1000 nM. For the molecule `CCC1Oc2c(cccc2-c2cn(C)c(=O)c3[nH]ccc23)NC1=O` (stereo not shown) [Example 4, 2-ethyl-8-(6-methyl-7-oxo-6,7-dihydro-1H-pyrrolo[2,3-c]pyridin-4-yl)-2H-1,4-benzoxazin-3(4H)-one], the IC50 was at most 1000 nM. `Cn1cc(-c2cccc3c2OC2(CC2)C(=O)N3)c2cc[nH]c2c1=O` [Example 30, 8-(6-methyl-7-oxo-6,7-dihydro-1H-pyrrolo[2,3-c]pyridin-4-yl)spiro[1,4-benzoxazine-2,1′-cyclopropan]-3(4H)-one] came in with an IC50 of at most 1000 nM. Regarding `CC(=O)NCc1cc2c(c(-c3cn(C)c(=O)c4[nH]ccc34)c1)OC(C(C)C)C(=O)N2` (stereo not shown) [Example 40, N-{[2-isopropyl-8-(6-methyl-7-oxo-6,7-dihydro-1H-pyrrolo[2,3-c]pyridin-4-yl)-3-oxo-3,4-dihydro-2H-1,4-benzoxazin-6-yl]methyl}acetamide], the IC50 is at most 1000 nM.

In turn, `CN1C(=O)C2(CC2)Oc2c(-c3cn(C)c(=O)c4[nH]ncc34)cc(S(C)(=O)=O)cc21` [Example 66, 4-methyl-8-(6-methyl-7-oxo-6,7-dihydro-1H-pyrazolo[3,4-c]pyridin-4-yl)-6-(methylsulfonyl)spiro[1,4-benzoxazine-2,1′-cyclopropan]-3(4H)-one] had an IC50 of at most 1000 nM. The same measure, in the same setting: the figure for `CCS(=O)(=O)c1cc2c(c(-c3cn(C)c(=O)c4[nH]ccc34)c1)OC(C(C)C)C(=O)N2` (stereo not shown) [Example 51, 6-(ethylsulfonyl)-2-isopropyl-8-(6-methyl-7-oxo-6,7-dihydro-1H-pyrrolo[2,3-c]pyridin-4-yl)-2H-1,4-benzoxazin-3(4H)-one] is at most 1000 nM; for `Cn1cc(-c2cc(S(C)(=O)=O)cc3c2NC2(CCC2)C(=O)N3)c2cc[nH]c2c1=O` [Example 62, 8′-(6-methyl-7-oxo-6,7-dihydro-1H-pyrrolo[2,3-c]pyridin-4-yl)-6′-(methylsulfonyl)-1′,4′-dihydro-3′H-spiro[cyclobutane-1,2′-quinoxalin]-3′-one] it is at most 1000 nM. `CN(C)S(=O)(=O)c1cc2c(c(-c3cn(C)c(=O)c4[nH]ccc34)c1)OC(C)(C)C(=O)N2` [Example 70, N,N,2,2-tetramethyl-8-(6-methyl-7-oxo-6,7-dihydro-1H-pyrrolo[2,3-c]pyridin-4-yl)-3-oxo-3,4-dihydro-2H-1,4-benzoxazine-6-sulfonamide] gave an IC50 of at most 1000 nM.

For the molecule `COc1cc2c(c(-c3cn(C)c(=O)c4[nH]ncc34)c1)OC(C(C)C)C(=O)N2` (stereo not shown) [Example 26, 2-isopropyl-6-methoxy-8-(6-methyl-7-oxo-6,7-dihydro-1H-pyrazolo[3,4-c]pyridin-4-yl)-2H-1,4-benzoxazin-3(4H)-one], the IC50 is at most 1000 nM. The molecule `CC(C)C1Oc2c(cc(-c3cnn(C)c3)cc2-c2cn(C)c(=O)c3[nH]ccc23)NC1=O` (stereo not shown) [Example 28, 2-isopropyl-8-(6-methyl-7-oxo-6,7-dihydro-1H-pyrrolo[2,3-c]pyridin-4-yl)-6-(1-methyl-1H-pyrazol-4-yl)-2H-1,4-benzoxazin-3(4H)-one] came in with an IC50 of at most 1000 nM. Consider `CC(C)C1Oc2c(-c3cn(C)c(=O)c4[nH]ccc34)cc(S(=O)(=O)N(C)C)cc2N(C)C1=O` (stereo not shown) [Example 71, 2-isopropyl-N,N,4-trimethyl-8-(6-methyl-7-oxo-6,7-dihydro-1H-pyrrolo[2,3-c]pyridin-4-yl)-3-oxo-3,4-dihydro-2H-1,4-benzoxazine-6-sulfonamide], for which the IC50 was at most 1000 nM. In turn, `CCN1C(=O)C(C(C)C)Oc2c(-c3cn(C)c(=O)c4[nH]ccc34)cc(S(C)(=O)=O)cc21` (stereo not shown) [Example 54, 4-ethyl-2-isopropyl-8-(6-methyl-7-oxo-6,7-dihydro-1H-pyrrolo[2,3-c]pyridin-4-yl)-6-(methylsulfonyl)-2H-1,4-benzoxazin-3(4H)-one] came in with an IC50 of at most 1000 nM.

For `COc1cc2c(c(-c3cn(C)c(=O)c4[nH]ncc34)c1)OC(C1CCCC1)C(=O)N2` (stereo not shown) [Example 42, 2-Cyclopentyl-6-methoxy-8-(6-methyl-7-oxo-6,7-dihydro-1H-pyrazolo[3,4-c]pyridin-4-yl)-2H-1,4-benzoxazin-3(4H)-one], the IC50 is at most 1000 nM. On to `CC1Oc2c(cccc2-c2cn(C)c(=O)c3[nH]ccc23)NC1=O` (stereo not shown) [Example 3, 2-methyl-8-(6-methyl-7-oxo-6,7-dihydro-1H-pyrrolo[2,3-c]pyridin-4-yl)-2H-1,4-benzoxazin-3(4H)-one], for which the IC50 was at most 1000 nM. On to `CNC(=O)c1cc2c(c(-c3cn(C)c(=O)c4[nH]ccc34)c1)OC(C(C)C)C(=O)N2` (stereo not shown) [Example 20, 2-isopropyl-N-methyl-8-(6-methyl-7-oxo-6,7-dihydro-1H-pyrrolo[2,3-c]pyridin-4-yl)-3-oxo-3,4-dihydro-2H-1,4-benzoxazine-6-carboxamide], for which the IC50 is at most 1000 nM. Same read-out and setting: the figure for `CC(C)C1Oc2c(-c3cn(C)c(=O)c4[nH]ccc34)cc(S(C)(=O)=O)cc2N(C)C1=O` (stereo not shown) [Example 47, 2-isopropyl-4-methyl-8-(6-methyl-7-oxo-6,7-dihydro-1H-pyrrolo[2,3-c]pyridin-4-yl)-6-(methylsulfonyl)-2H-1,4-benzoxazin-3(4H)-one] is at most 1000 nM; for `CC(C)C1Oc2c(cc(S(=O)(=O)C(C)C)cc2-c2cn(C)c(=O)c3[nH]ccc23)NC1=O` (stereo not shown) [Example 52, 2-isopropyl-6-(isopropylsulfonyl)-8-(6-methyl-7-oxo-6,7-dihydro-1H-pyrrolo[2,3-c]pyridin-4-yl)-2H-1,4-benzoxazin-3(4H)-one] it is at most 1000 nM; for `Cn1cc(-c2cc(S(C)(=O)=O)cc3c2OC(C)(C)C(=O)N3)c2cc[nH]c2c1=O` [Example 45, 2,2-dimethyl-8-(6-methyl-7-oxo-6,7-dihydro-1H-pyrrolo[2,3-c]pyridin-4-yl)-6-(methylsulfonyl)-2H-1,4-benzoxazin-3(4H)-one] it is at most 1000 nM. For `Cn1cc(-c2cccc3c2OC(C)(C)C(=O)N3)c2cc[nH]c2c1=O` [Example 31, 2,2-dimethyl-8-(6-methyl-7-oxo-6,7-dihydro-1H-pyrrolo[2,3-c]pyridin-4-yl)-2H-1,4-benzoxazin-3(4H)-one], the IC50 was at most 1000 nM.

As to `Cn1cc(-c2cccc3c2OC(C2CC2)C(=O)N3)c2cc[nH]c2c1=O` (stereo not shown) [Example 6, 2-cyclopropyl-8-(6-methyl-7-oxo-6,7-dihydro-1H-pyrrolo[2,3-c]pyridin-4-yl)-2H-1,4-benzoxazin-3(4H)-one], the IC50 was at most 1000 nM. On to `CCS(=O)(=O)c1cc2c(c(-c3cn(C)c(=O)c4[nH]ccc34)c1)OC(C)(C)C(=O)N2` [Example 78, 6-(ethylsulfonyl)-2,2-dimethyl-8-(6-methyl-7-oxo-6,7-dihydro-1H-pyrrolo[2,3-c]pyridin-4-yl)-2H-1,4-benzoxazin-3(4H)-one], for which the IC50 is at most 1000 nM.

Regarding `Cn1cc(-c2cc(S(C)(=O)=O)cc3c2NC2(CCCCC2)C(=O)N3)c2cc[nH]c2c1=O` [Example 64, 8′-(6-methyl-7-oxo-6,7-dihydro-1H-pyrrolo[2,3-c]pyridin-4-yl)-6′-(methylsulfonyl)-1′,4′-dihydro-3′H-spiro[cyclohexane-1,2′-quinoxalin]-3′-one], the IC50 was at most 1000 nM.

The assay is the same for the next values; noted with them: human myeloma cells, 3 days, concentration required for 50% cell death.
`COc1cc2c(c(-c3cn(C)c(=O)c4[nH]ccc34)c1)OC(C1CCCC1)C(=O)N2` (single isomer, unassigned) [Example 35B, 2-Cyclopentyl-6-methoxy-8-(6-methyl-7-oxo-6,7-dihydro-1H-pyrrolo[2,3-c]pyridin-4-yl)-2H-1,4-benzoxazin-3(4H)-one] displayed an IC50 of at most 1000 nM.
